How the values were obtained:
[1] = test system: fertilized broiler eggs; test: Immunohistochemical analysis of muscle fiber CSA during in ovo myogenesis (Example 1); type: in vivo, chicken; conditions: 100 μl 250 mM NR in ovo at 11 d
Procedure: At 11-days of incubation, 60 fertilized broiler eggs were randomly assigned to completely randomized design with a 2×2 factorial arrangement. Factor 1 comprised treatment, with eggs injected with 100 μl of 0.9% sterile saline solution (NRNeg) or 250 mM NR in sterile saline (NRPos). Factor 2 comprised injection location, with treatments injected into the yolk or albumen. Eggs were incubated at 37±3° C. and a relative humidity of 40±2% for 7 days. Humidity was increased to 60±2% at the same temperature for the final 3 days of incubation. Twenty-four hours after hatching, chicks were euthanized by exposure to CO2 and decapitation. Measurements including chick weight and left Pectoralis major weight, length, and depth were taken for analysis. Immunohistochemical analysis was conducted to determine if NR supplementation increased muscle fiber cross-sectional area (CSA) during in ovo myogenesis. There were no Treatment×Location or Treatment and Location main effects for muscle fiber CSA (P>0.06). […] This is desired heavily in meat producing animals.

[2] = test system: Fertilized Cobb 500 broiler eggs; test: Pectoralis major NAD+ quantification, NAD/NADH assay kit (second Example VI); type: in vivo, chicken; conditions: hatched chicks
Procedure: Nicotinamide adenine dinucleotide content of the right PMM was quantified using a commercial NAD/NADH assay kit (Abnova, Taipei, Taiwan). Twenty-milligram of PMM tissue was homogenized in a propriety NAD extraction buffer, heated at 60° C. for 5 min, and propriety assay and NADH buffers were added. Samples were centrifuged at 14,000 rpm for 5 min and the supernatant was used for analysis. Standards, samples, and working reagent [propriety assay buffer, enzymes, lactate, and 3-(4,5-dimethylthiazol-2-yl)-2,5-diphenyltetrazolium bromide] were loaded onto 96-well plates and absorbance was read at 565 nm at 0 and 15 min. The change in absorbance was used to calculate amount of NAD+.

[3] = test system: finishing barrows; test: Finishing pig growth performance (Example IV); type: in vivo
Procedure: (§1) Seven days prior to the beginning of the experiment, 10 finishing barrows (initial BW 111.9±1.6 kg) were assigned to individual pens located at the East Finisher facility of the Kansas State University Swine Teaching and Research Center (Manhattan, Kans.). Each pen was 7.4 m^2 with a slatted floor, contained a nipple waterer and an individual dry feeder that allowed ad libitum access to food and water. Barrows were randomly assigned to 1 of 2 NR treatments, 0 or 30 mg/kg daily of NR mixed in Karo® syrup and administered by oral gavage. Barrows were administered their assigned treatment for 10 days, after which they were harvested under USDA inspection. Twenty-four hours after harvest, carcass measurements were taken by trained personnel, carcasses were fabricated into the 5 major wholesale cuts, and whole-boneless loins were vacuum packaged and aged for 10 days. Loin were cut into 3 chops with chop 1 being used for day-0 metmyoglobin reducing ability (MRA) analysis, chop 2 being used for day-4 MRA and oxygen consumption rate (OCR) analyses, and chop 3 for 8-day objective/subjective color evaluation and MRA and OCR analyses.

[4] = test system: growing pigs; test: Longissimus lumborum muscle fiber distribution and succinate dehydrogenase staining (Example III); type: in vivo, pig; conditions: 30 mg/kg BW, 7 days; numerical
Procedure: Nine growing pigs were blocked by bodyweight (BW) and placed in metabolism crates. After a 3-day acclimation period, pigs within each BW block were randomly assigned to a treatment (n=3 pigs/treatment). Treatments comprised pigs supplemented 0, 15, or 30 mg/kg BW NR for 7 days. Pigs were allowed ad libitum access to a standard growing diet and water. Treatments were administered daily at 8 a.m. by mixing NR in 20 mL of Karo® dark syrup and orally drenching the pigs. On day 0 and 3 of the trial, muscle biopsies of the LL were taken for NAD+ analysis using standard procedures. At day 7, pigs were transported to the Kansas State University Meats Laboratory and euthanized by a captive penetrating bolt to the brain, followed by exsanguination. Following harvest procedures, 3 g of the LL were collected for NAD+ analysis. Twenty-four hours after harvest, the whole LL not sampled at harvest was removed from the carcass and aged 10 days. After aging, the LL was cut into 6 chops for retail color stability analysis, including 6-day surface oxy- and metmyoglobin percentage, 6-day objective and subjective color panel evaluation, and day 4 and 6 metmyoglobin reducing ability (MRA).

[5] = test system: finishing barrows; test: Loin chop color stability, 8-day simulated retail display (Example IV); type: in vivo, pig; conditions: NR 30 mg/kg, 10 days
Procedure: as §1, with “analyses. There were no Treatment×Day interactions for all objective and subjective color measurements (P>0.77). Day of display affected all measures consistent with the discoloration of meat (P<0.02), except L* (lightness; 0=black and 100=white) value which was not affected (P=0.14; Table 5).” for “analyses.”

[6] = d 0 to 17, NR 30 mg/kg daily d 7 to 17
[7] = 8-day display, treatment effect not significant (P>0.19)

NC(=O)c1ccc[n+]([C@@H]2O[C@H](CO)[C@@H](O)[C@H]2O)c1 [Nicotinamide riboside, nicotinamide riboside]
Muscle fiber cross-sectional area (CSA) [1]: did not increase
NAD+ content of PMM vs the other 3 treatment groups ([2]; 1,000 mM NR): more NAD^+
NAD+ content of PMM among 0, 250 and 500 mM groups ([2]; 250 and 500 mM NR): did not differ
Increase of average daily gain (numerical) ([3]; 30 mg/kg daily oral gavage over 10 days): 8%
Body weight ([3]; d 0 (NR 30 mg/kg given d 7 to 17; before treatment)): 112.0 kg
Average daily gain ([3]; d 0 to 7 (before NR treatment)): 0.7 kg
Average daily feed intake [3, 6]: 3.8 kg
Average daily gain [3, 6]: 1.1 kg
Feed to gain ratio [3, 6]: 3.42
Body weight ([3]; d 7 (start of NR 30 mg/kg, d 7 to 17)): 117.0 kg
Average daily gain ([3]; d 7 to 17, NR 30 mg/kg daily): 1.43 kg
Body weight ([3]; d 17, NR 30 mg/kg daily d 7 to 17): 131.3 kg
Muscle fiber distribution vs 0 mg/kg LL [4]: less type 2B (glycolytic) fibers and more type 1 and 2A (oxidative) fibers
Succinate dehydrogenase staining in type 2B fibers vs other two treatments [4]: more intense staining
Metmyoglobin reducing ability (MRA) vs control [5, 7]: greater
Oxygen consumption rate (OCR) vs control [5, 7]: greater
Loin chop L* (0 = black and 100 = white) ([5]; display day 0): 64.4
Loin chop a* (−60 = green and 60 = red) ([5]; display day 0): 19.7
Loin chop L* (0 = black and 100 = white) ([5]; display day 1): 65.2
Loin chop a* (−60 = green and 60 = red) ([5]; display day 1): 18.8
Loin chop L* (0 = black and 100 = white) ([5]; display day 2): 63.7
Loin chop a* (−60 = green and 60 = red) ([5]; display day 2): 18.6
Loin chop L* (0 = black and 100 = white) ([5]; display day 3): 63.4
Loin chop a* (−60 = green and 60 = red) ([5]; display day 3): 17.8
Loin chop L* (0 = black and 100 = white) ([5]; display day 4): 63.1
Loin chop a* (−60 = green and 60 = red) ([5]; display day 4): 17.3
Loin chop L* (0 = black and 100 = white) ([5]; display day 5): 62.9
Loin chop a* (−60 = green and 60 = red) ([5]; display day 5): 16.3
Loin chop L* (0 = black and 100 = white) ([5]; display day 6): 62.7
Loin chop a* (−60 = green and 60 = red) ([5]; display day 6): 15.6
Loin chop L* (0 = black and 100 = white) ([5]; display day 7): 62.8
Loin chop a* (−60 = green and 60 = red) ([5]; display day 7): 15.1
Loin chop L* (0 = black and 100 = white) ([5]; display day 8): 62.8
Loin chop a* (−60 = green and 60 = red) ([5]; display day 8): 14.7
Trained panelists loin chop discoloration vs control ([5]; entire 8-day display period): less discoloration
Loin chop surface metmyoglobin vs control ([5]; over the 8-day display period): less surface metmyoglobin formation
Loin chop surface oxymyoglobin vs control ([5]; over the 8-day display period): greater surface oxymyoglobin
